Results as given in patent EP0554025A2, “Fluorinated cyclobutyl purines and pyrimidines” (E.R. SQUIBB & SONS, INC., priority 1992, dated 1993).
Read-outs that look alike come from different tables or passages of the source.

Experiments:
Format in all cases: cell-based
[1] = tested on: HSV-1 (herpes simplex virus type 1, strain Schooler); assay: HSV-1 plaque reduction antiviral assay in WI-38 cell culture monolayers; conditions: WI-38 cell monolayers, plaque reduction after 4 days incubation at 37°C, read-out: ID50 (μM) for the following viruses HSV-1
Description: (§1) Assays were performed in cell culture systems to determine the concentrations of compounds that are effective in preventing several kinds of viral infections. HSV-1 (herpes simplex virus type 1, strain Schooler), HSV-2 (herpes simplex virus type 2, strain 186), VZV (varicella zoster virus, strain ELLEN), HCMV (human cytomegalovirus, strain AD 169). HSV-1, HSV-2, HCMV, and VZV antiviral assays: Virus was adsorbed to WI-38 cell culture monolayers in 6 cell culture plates (Costar, Cambridge, MA) for 1 hour prior to addition of maintenance medium containing duplicate dilutions of the test compound. Inhibition of plaque development was evaluated on fixed and stained monolayers after 4 days incubation at 37°C for HSV-1 and HSV-2 and after 6-7 days incubation at 37°C for HCMV and VZV. ID50 values were determined from the drug concentration which conferred at least a 50% plaque reduction compared to virus controls.

[2] = tested on: HCMV (human cytomegalovirus, strain AD 169); assay: HCMV plaque reduction antiviral assay in WI-38 cell culture monolayers; conditions: plaque reduction after 6-7 days incubation at 37°C, read-out: ID50 (μM) for the following viruses HCMV
Description: as §1

[3] = tested on: HSV-2 (herpes simplex virus type 2, strain 186); assay: HSV-2 plaque reduction antiviral assay in WI-38 cell culture monolayers; conditions: WI-38 cell monolayers, plaque reduction after 4 days incubation at 37°C, read-out: ID50 (μM) for the following viruses HSV-2
Description: as §1

[4] = tested on: VZV (varicella zoster virus, strain ELLEN); assay: VZV plaque reduction antiviral assay in WI-38 cell culture monolayers; conditions: plaque reduction after 6-7 days incubation at 37°C, read-out: ID50 (μM) for the following viruses VZV
Description: as §1

Row | Structure (SMILES) | IC50 ([1]; Human alphaherpesvirus 1, 96 h) | IC50 ([2]; Human betaherpesvirus 5, WI-38 cell monolayers) | IC50 ([3]; Human alphaherpesvirus 2, 96 h) | IC50 ([4]; Human alphaherpesvirus 3, WI-38 cell monolayers) | IC50 [1] | IC50 ([2]; WI-38 cell monolayers) | IC50 [3] | IC50 ([4]; WI-38 cell monolayers)
1 | Nc1nc2c(ncn2C2CC(F)(CO)C2CO)c(=O)[nH]1 (stereo not drawn) [Product of Example 1, (1α,2β,3β)-2-Amino-9-[3-fluoro-2,3-bis(hydroxymethyl)cyclobutyl]-1,9-dihydro-6H-purin-6-one] | 0.35 to 0.7 µM | 7 to 18 µM | 0.35 to 0.7 µM | 1.1 µM |  |  |  | 
2 | Nc1nc2c(ncn2[C@H]2C[C@@](F)(CO)[C@@H]2O)c(=O)[nH]1 [Product of Example 2, (1 α,2β,3β)-2-Amino-9-[3-fluoro-2-hydroxy-3-(hydroxymethyl)cyclobutyl]-1,9-dihydro-6H-purin-6-one] |  |  |  |  | 37 to 93 µM | 37 µM | 37 to 93 µM | 7 to 19 µM
